Earlier results on one substance are cited in EP0333071A2, “Polypeptides, methods for their preparation, pharmaceutical compositions comprising them and use” (Eisai Co., Ltd., priority 1988, dated 1989).

The subject of this data set is enhancement in the quantity of spontaneous motion induced by methamphethamine. To be noted: general administration; comparison statement for neurotensin or derivatives thereof.

In the case of neurotensin, the methamphethamine antagonism result was “hardly exhibit methamphethamine antagonism”.
